According to US8697081B2, “Method of modulating neovascularization” (The Regents of the University of Michigan, priority 2008, dated 2014):

Tests used:
Assay type in all cases: cell-based
human endothelial cells [1] = assay: Cell morphology, migration and cell number of endothelial cells in 3-D fibrin gel; details: 2 days, 50 μM blebbistatin
Description: (§1) Endothelial cells were isolated from human umbilical cord veins by collagenase digestion and cultured in Medium 199 (Gibco) containing 20% human serum, 50 μg/ml endothelial cell growth supplement (BD Biosciences), 100 U/ml penicillin, and 100 μg/ml streptomycin (Hiraoka et al. 1998. Cell, 95(3): 365-377). […]
The effect of Fn matrix assembly, or lack thereof, on endothelial cell function during neovascularization was assessed. […]
(Chernousov et al. 1991. J. Biol. Chem., 266(17): 10851-10858; Tomasini-Johansson et al. 2001. J. Biol. Chem., 276(26): 23430-23439; Mao and Schwarzbauer. 2005. Matrix Biol., 24(6): 389-399; and Tomasini-Johansson et al. 2006. Matrix Biol., 25(5): 282-293). […] Cell number in 3-D cultures was determined by hemacytometry after dissolving gels with 2 mg/ml bacterial collagenase (Worthington) while the number of patent tubules was determined in randomly selected cross-sections. Fn matrix assembly and cell morphology were monitored by confocal laser microscopy. To examine cell migration, endothelial cells were embedded in a 100 μl fibrin gel for 2 hours, then placed within a 500 μl gel for 8 days in the presence of Del29, FUD, control IgG, or L8, after which migration from the inner gel was assessed. […]

human endothelial cells [2] = assay: F-actin cytoskeletal organization, activated β1 integrin and vinculin distribution (phalloidin, confocal); details: 3-D fibrin gel, 2 days, 50 μM blebbistatin
Description: To further study the effects of Fn matrix inhibition, additional cytological processes associated with angiogenesis were examined. Endothelial cells were cultured within 3-D or 2-D fibrin gels in the presence of the FUD or Del 29 peptides for 2 days. F-actin cytoskeletal organization was monitored following staining with Alexa 488-conjugated phalloidin. Cells also were stained with an antibody against activated β1 integrin or transfected with a GFP-tagged vinculin expression vector (pRK-vinculin-EGFP) to study distribution. Following counterstaining with Alexa 594-labeled phalloidin, fluorescence was monitored by confocal laser microscopy.
In the absence of Fn fibrillogenesis, an impaired ability of embedded endothelial cells to generate myosin-dependent forces and increase cytoplasmic stiffness was predicted to affect both Fn unfolding, as well as the ability of the cells to properly register the mechanical properties of the surrounding substratum (Wu et al. 1995. Cell, 83(5): 715-724; Zhong et al. 1998. J. Cell Biol., 141(2): 539-551; Baneyx et al. 2002. Proc. Natl. Acad. Sci. USA, 99(8): 5139-5143; Discher et al. 2005. Science, 310(5751): 1139-1143; Engler, supra; and Yoneda, supra). As such, the rheologic and functional characteristics of endothelial cells were assessed in the presence of the specific myosin ATPase inhibitor, blebbistatin. […]

human endothelial cells [3] = assay: Tubulogenesis (patent tubules) in 3-D fibrin gel; details: 50 μM blebbistatin
Description: as §1
(Chernousov et al. 1991. J. Biol. Chem., 266(17): 10851-10858; Tomasini-Johansson et al. 2001. J. Biol. Chem., 276(26): 23430-23439; Mao and Schwarzbauer. 2005. Matrix Biol., 24(6): 389-399; and Tomasini-Johansson et al. 2006. Matrix Biol., 25(5): 282-293). […] Cell number in 3-D cultures was determined by hemacytometry after dissolving gels with 2 mg/ml bacterial collagenase (Worthington) while the number of patent tubules was determined in randomly selected cross-sections. Fn matrix assembly and cell morphology were monitored by confocal laser microscopy. To examine cell migration, endothelial cells were embedded in a 100 μl fibrin gel for 2 hours, then placed within a 500 μl gel for 8 days in the presence of Del29, FUD, control IgG, or L8, after which migration from the inner gel was assessed.

Cc1ccc2c(c1)C(=O)C1(O)CCN(c3ccccc3)C1=N2 (stereo not drawn) [blebbistatin]
cell shape change (human endothelial cells [1]): failed to undergo | cytoskeletal architecture reorganization (human endothelial cells [2]): did not reorganize | endothelial cell tubulogenesis (human endothelial cells [3]): blocked completely
